Laboratory results reported in patent US20260355120A1, “"GOOD" BUFFER-BASED CATIONIC LIPIDS FOR NUCLEIC ACID DELIVERY” (SANOFI VACCINES US INC., priority 2023, published 2026).

System: hEPO
Assay: Delivery of hEPO mRNA by intramuscular administration of lipid nanoparticles; serum hEPO by ELISA
Type: in vivo, female BALB/cJ mice
Settings: single IM 0.1 μg/An hEPO mRNA LNP, lipid formulation 1 (N/P 4), MC3 and SM-102 in formulation 2 (N/P 3); for hEPO 6 Hr Mean: 6 h post injection; for hEPO 24 Hr Mean: 24 h post injection
Excerpt: The lipid nanoparticles in the examples of the present invention were formulated using Process A of WO 2018/089801 (see, e.g., Example 1 and FIG. 1 of WO 2018/089801). Process A (“A”) relates to a conventional method of encapsulating mRNA by mixing mRNA with a mixture of lipids, without first pre-forming the lipids into lipid nanoparticles. In an exemplary process, an ethanolic solution of a mixture of lipids (cationic lipid, phosphatidylethanolamine, cholesterol, and polyethylene glycol-lipid) at a fixed lipid to mRNA ratio were combined with an aqueous buffered solution of target mRNA at an acidic pH under controlled conditions to yield a suspension of uniform LNPs. After ultrafiltration and diafiltration into a suitable diluent system, the resulting nanoparticle suspensions were diluted to final concentration, filtered, and stored frozen at −80 °C until use.
Lipid nanoparticle formulations of Table C were prepared by Process A. All of the lipid nanoparticle formulations comprised hEPO mRNA and the different lipids (Cationic Lipid: DMG-PEG2000: Cholesterol: DOPE/DSPC) in the mol % ratios specified in Table C.
The cationic lipids of the present invention and lipid OF-02 were evaluated with lipid nanoparticle formulation 1. MC3 and SM-102 were evaluated with lipid nanoparticle formulation 2, which is a typical formulation for those lipids.
In summary, lipid screening studies were conducted with female BALB/cJ mice 6-8 weeks of age (Jax #000651). Mice were dosed with 0.1 μg in 30 μL of LNPs by a single intramuscular (IM) injection into the gastrocnemius leg muscle. Blood samples were taken 6 and 24 hours post injection and hEPO levels were measured in the blood serum of the mice using an ELISA assay according to the manufacture's protocol (R&D systems, Cat #DEP-00). WO2022/099003 A1 also describes an in vivo assay for intramuscular administration (e.g. on page 46, paragraph [00206]).

Row | SMILES | hEPO 6 Hr Mean | hEPO 24 Hr Mean
1 | CCCCCCCC/C=C\CCCCCCCCN(CCCCCCCC(=O)OC(CCCCCCCC)CCCCCCCC)CCCCSSCCCCN1CCN(CCOC(=O)CCCN(CC(O)CCCCCCCCCC)CC(O)CCCCCCCCCC)CC1 (stereo not shown) [Compound 1] | 11 ng/mL | 9.5 ng/mL
2 | CCCCCCCCCCCOC(=O)CCCCCN(CCCCCCCC(=O)OC(CCCCCCCC)CCCCCCCC)CCCCSSCCCCN1CCN(CCOC(=O)CCCN(CC(O)CCCCCCCCCC)CC(O)CCCCCCCCCC)CC1 (stereo not shown) [Compound 2] | 35.4 ng/mL | 29.2 ng/mL
3 | CCCCCC/C=C\COC(=O)CCCCCCCN(CCCCCCCC(=O)OC(CCCCCCCC)CCCCCCCC)CCCCSSCCCCN1CCN(CCOC(=O)CCCN(CC(O)CCCCCCCCCC)CC(O)CCCCCCCCCC)CC1 (stereo not shown) [Compound 3] | 20.5 ng/mL | 19.3 ng/mL
4 | CCCCC/C=C\C/C=C\CCCCCCCCN(CCCCCCCC(=O)OC(CCCCCCCC)CCCCCCCC)CCCCSSCCCCN1CCN(CCOC(=O)CCCN(CC(O)CCCCCCCCCC)CC(O)CCCCCCCCCC)CC1 (stereo not shown) [Compound 4] | 18.8 ng/mL | 12.1 ng/mL
5 | CCCCCC/C=C\COC(=O)CCCCCC(O)CN(CCCCSSCCCCN1CCN(CCOC(=O)CCCN(CC(O)CCCCCCCCCC)CC(O)CCCCCCCCCC)CC1)CC(O)CCCCCC(=O)OC(CCCCCCCC)CCCCCCCC (stereo not shown) [Compound 5] | 35 ng/mL | 18.7 ng/mL
6 | CCCCCCCC/C=C\CCCCCCC(O)CN(CCCCSSCCCCN1CCN(CCOC(=O)CCCN(CC(O)CCCCCCCCCC)CC(O)CCCCCCCCCC)CC1)CC(O)CCCCCC(=O)OC(CCCCCCCC)CCCCCCCC (stereo not shown) [Compound 6] | 34.7 ng/mL | 18.4 ng/mL
7 | CCCCC/C=C\C/C=C\CCCCCCC(O)CN(CCCCSSCCCCN1CCN(CCOC(=O)CCCN(CC(O)CCCCCCCCCC)CC(O)CCCCCCCCCC)CC1)CC(O)CCCCCC(=O)OC(CCCCCCCC)CCCCCCCC (stereo not shown) [Compound 7] | 31.4 ng/mL | 25.8 ng/mL
8 | CCCCCCCCCCCOC(=O)CCCC(O)CN(CCCCSSCCCCN1CCN(CCOC(=O)CCCN(CC(O)CCCCCCCCCC)CC(O)CCCCCCCCCC)CC1)CC(O)CCCCCC(=O)OC(CCCCCCCC)CCCCCCCC (stereo not shown) [Compound 8] | 41.8 ng/mL | 33.3 ng/mL
9 | CCCCCCCCCCCOC(=O)CCCCCN(CCCCCCCC(=O)OC(CCCCCCCC)CCCCCCCC)CCCC(=O)OCCN1CCN(CCCCSSCCCN(CC(O)CCCCC(=O)OCC(CC)CC)CC(O)CCCCC(=O)OCC(CC)CC)CC1 (stereo not shown) [Compound 9] | 24.3 ng/mL | 15.7 ng/mL
10 | CCCCCCCCCCCOC(=O)CCCCCN(CCCCCCCC(=O)OC(CCCCCCCC)CCCCCCCC)CCCC(=O)OCCN1CCN(CCCCSSCCCCN(CC(O)CCCCCC(=O)OC(CCCCCCCC)CCCCCCCC)CC2CCCC(=O)O2)CC1 (stereo not shown) [Compound 10] | 19.6 ng/mL | 7.7 ng/mL
11 | CCCCCCCCC(CCCCCCCC)OC(=O)CCCCCC(O)CN(CCCC(=O)OCCN1CCN(CCCCSSCCCN(CC(O)CCCCC(=O)OCC(CC)CC)CC(O)CCCCC(=O)OCC(CC)CC)CC1)CC1CCCC(=O)O1 (stereo not shown) [Compound 11] | 18.7 ng/mL | 10.1 ng/mL
12 | CCCCCCCCCCCOC(=O)CCCC(O)CN(CCCC(=O)OCCN1CCN(CCCCSSCCCN(CC(O)CCCCC(=O)OCC(CC)CC)CC(O)CCCCC(=O)OCC(CC)CC)CC1)CC(O)CCCCCC(=O)OC(CCCCCCCC)CCCCCCCC (stereo not shown) [Compound 12] | 37.4 ng/mL | 21 ng/mL
13 | CCCCCCCCCCCOC(=O)CCCCCN(CCCCCCCC(=O)OC(CCCCCCCC)CCCCCCCC)CCCC(=O)OCCN1CCN(CCCCSSCCCCN(CC(O)CCCCCC(=O)OC(CCCCCCCC)CCCCCCCC)CC(O)CCCC(=O)OCCCCCCCCCCC)CC1 (stereo not shown) [Compound 13] | 29.5 ng/mL | 13.8 ng/mL
14 | CCCCCCCCCCCOC(=O)CCCC(O)CN(CCCCSSCCCCN1CCN(CCOC(=O)CCCN(CC(O)CCCCCC(=O)OC(CCCCCCCC)CCCCCCCC)CC(O)CCCC(=O)OCCCCCCCCCCC)CC1)CC(O)CCCCCC(=O)OC(CCCCCCCC)CCCCCCCC (stereo not shown) [Compound 14] | 26.4 ng/mL | 12.8 ng/mL
15 | CCCCCCCCCCC(O)CN(CCCC(=O)OCCN1CCN(CCCCSSCCCCN(CC(O)CCCCC(=O)OCC(CC)CC)CC(O)CCCCC(=O)OCC(CC)CC)CC1)CC(O)CCCCCCCCCC (stereo not shown) [Compound 15] | 36 ng/mL | 22.8 ng/mL
16 | CCCCCCCCCCC(O)CN(CCCC(=O)OCCN1CCN(CCCCSSCCCN(CC(O)CCCCC(=O)OCC(CC)CC)CC(O)CCCCC(=O)OCC(CC)CC)CC1)CC(O)CCCCCCCCCC (stereo not shown) [Compound 16] | 32.4 ng/mL | 18.7 ng/mL
17 | CCCCCCCCCCC(O)CN(CCCC(=O)OCCN1CCN(CCCCSSCCCCN(CC(O)CCCC(=O)OC(CC)CC)CC(O)CCCC(=O)OC(CC)CC)CC1)CC(O)CCCCCCCCCC (stereo not shown) [Compound 17] | 19.7 ng/mL | 10.4 ng/mL
18 | CCCCCCCCCCC(O)CN(CCCC(=O)OCCN1CCN(CCCCSSCCCN(CC(O)CCCC(=O)OC(CC)CC)CC(O)CCCC(=O)OC(CC)CC)CC1)CC(O)CCCCCCCCCC (stereo not shown) [Compound 18] | 18.2 ng/mL | 9.2 ng/mL
19 | CCCCC/C=C\C/C=C\CCCCCCCCC(CCCCCCCC/C=C\C/C=C\CCCCC)OC(=O)CCCN(C)C [MC3, reference compound] | 3.9 ng/mL | 2.9 ng/mL
20 | CCCCCCCCCCCOC(=O)CCCCCN(CCO)CCCCCCCC(=O)OC(CCCCCCCC)CCCCCCCC [SM102, SM-102, reference compound] | 12.5 ng/mL | 13.3 ng/mL
